Source: PubChem BioAssay AID1918991 (Molecular Pharmacology Branch, DTP, NCI, 2023)

Test system: 186277-243-T-J2-PDC complex spheroid growth
Assay: Anticancer human tumor 186277-243-T-J2-PDC patient-derived colon adenocarcinoma cell line growth inhibition [AhR]
Settings: for IC50: curve of first compound; for viability, T/C: stronger effect = lower value
Procedure, shortened: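 Complex tumor spheroids co-cultured with HUVEC and human MSC stroma; AhR antagonists tested in combination with standard-of-care and investigational agents. Top concentration at or near clinical Cmax (else 10 microM), half-log dilutions; growth expressed as percent test/control.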

[1] = second compound 0.1 µM, first compound 0.0316 µM
[2] = second compound 0.1 µM, first compound 0.1 µM
[3] = second compound 0.1 µM, first compound 0.316 µM
[4] = second compound 0.1 µM, first compound 1 µM
[5] = second compound 0.1 µM, first compound 3.16 µM
[6] = second compound 0.1 µM, first compound 10 µM
[7] = second compound 0.316 µM, first compound 0.0316 µM
[8] = second compound 0.316 µM, first compound 0.1 µM
[9] = second compound 0.316 µM, first compound 0.316 µM
[10] = second compound 0.316 µM, first compound 1 µM
[11] = second compound 0.316 µM, first compound 3.16 µM
[12] = second compound 0.316 µM, first compound 10 µM
[13] = second compound 1 µM, first compound 0.0316 µM
[14] = second compound 1 µM, first compound 0.1 µM
[15] = second compound 1 µM, first compound 0.316 µM
[16] = second compound 1 µM, first compound 1 µM
[17] = second compound 1 µM, first compound 3.16 µM
[18] = second compound 1 µM, first compound 10 µM
[19] = second compound 3.16 µM, first compound 0.0316 µM
[20] = second compound 3.16 µM, first compound 0.1 µM
[21] = second compound 3.16 µM, first compound 0.316 µM
[22] = second compound 3.16 µM, first compound 1 µM
[23] = second compound 3.16 µM, first compound 3.16 µM
[24] = second compound 3.16 µM, first compound 10 µM
[25] = second compound 10 µM, first compound 0.0316 µM
[26] = second compound 10 µM, first compound 0.1 µM
[27] = second compound 10 µM, first compound 0.316 µM
[28] = second compound 10 µM, first compound 1 µM
[29] = second compound 10 µM, first compound 3.16 µM
[30] = second compound 10 µM, first compound 10 µM
[31] = second compound 0.1 µM, first compound 0.00949 µM
[32] = second compound 0.1 µM, first compound 0.03 µM
[33] = second compound 0.1 µM, first compound 0.0949 µM
[34] = second compound 0.1 µM, first compound 0.3 µM
[35] = second compound 0.316 µM, first compound 0.00949 µM
[36] = second compound 0.316 µM, first compound 0.03 µM
[37] = second compound 0.316 µM, first compound 0.0949 µM
[38] = second compound 0.316 µM, first compound 0.3 µM
[39] = second compound 1 µM, first compound 0.00949 µM
[40] = second compound 1 µM, first compound 0.03 µM
[41] = second compound 1 µM, first compound 0.0949 µM
[42] = second compound 1 µM, first compound 0.3 µM
[43] = second compound 3.16 µM, first compound 0.00949 µM
[44] = second compound 3.16 µM, first compound 0.03 µM
[45] = second compound 3.16 µM, first compound 0.0949 µM
[46] = second compound 3.16 µM, first compound 0.3 µM
[47] = second compound 10 µM, first compound 0.00949 µM
[48] = second compound 10 µM, first compound 0.03 µM
[49] = second compound 10 µM, first compound 0.0949 µM
[50] = second compound 10 µM, first compound 0.3 µM
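Further: spheroids exposed to compounds for seven days before the viability read.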
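Wherever viability, T/C is given: luminescent signal used as a stand-in for viable cell amount; 100% = DMSO vehicle control wells.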

Q: `CC1(C)CCC(CN2CCN(c3ccc(C(=O)NS(=O)(=O)c4ccc(NCC5CCOCC5)c([N+](=O)[O-])c4)c(Oc4cnc5[nH]ccc5c4)c3)CC2)=C(c2ccc(Cl)cc2)C1` + Cc1cncc(-c2nc(NCCc3c[nH]c4ccccc34)c3ncn(C(C)C)c3n2)c1 was tested. Which IC50 (second compound 0.1 µM) did it give?
A: > 10 µM

Q: What about the IC50 (second compound 0.316 µM) of the same molecule?
A: > 10 µM

Q: And the IC50 (second compound 1 µM)?
A: > 10 µM

Q: And the IC50 (second compound 3.16 µM)?
A: > 10 µM

Q: What about the IC50 (second compound 10 µM) of the same molecule?
A: > 10 µM

Q: What about the viability, T/C [1] of the same molecule?
A: 88.2%

Q: And the viability, T/C [2]?
A: 97.7%

Q: What about the viability, T/C [3] of the same molecule?
A: 99.4%

Q: What about the viability, T/C [4] of the same molecule?
A: 91.4%

Q: And the viability, T/C [5]?
A: 94.3%

Q: And the viability, T/C [6]?
A: 94.8%

Q: And the viability, T/C [7]?
A: 109%

Q: What about the viability, T/C [8] of the same molecule?
A: 87.4%

Q: And the viability, T/C [9]?
A: 102%

Q: And the viability, T/C [10]?
A: 83.5%

Q: What about the viability, T/C [11] of the same molecule?
A: 100%

Q: And the viability, T/C [12]?
A: 106%

Q: And the viability, T/C [13]?
A: 102%

Q: And the viability, T/C [14]?
A: 85.5%

Q: What about the viability, T/C [15] of the same molecule?
A: 97.4%

Q: What about the viability, T/C [16] of the same molecule?
A: 97.9%

Q: What about the viability, T/C [17] of the same molecule?
A: 103%

Q: What about the viability, T/C [18] of the same molecule?
A: 103%

Q: And the viability, T/C [19]?
A: 110%

Q: And the viability, T/C [20]?
A: 108%

Q: What about the viability, T/C [21] of the same molecule?
A: 105%

Q: What about the viability, T/C [22] of the same molecule?
A: 103%

Q: What about the viability, T/C [23] of the same molecule?
A: 109%

Q: And the viability, T/C [24]?
A: 105%

Q: What about the viability, T/C [25] of the same molecule?
A: 77%

Q: What about the viability, T/C [26] of the same molecule?
A: 81.6%

Q: And the viability, T/C [27]?
A: 82.8%

Q: What about the viability, T/C [28] of the same molecule?
A: 95.5%

Q: What about the viability, T/C [29] of the same molecule?
A: 88.4%

Q: What about the viability, T/C [30] of the same molecule?
A: 88.5%

Q: With `CC1COCCN1c1cc(C2(S(C)(=N)=O)CC2)nc(-c2ccnc3[nH]ccc23)n1` (stereo not given) + Cc1cncc(-c2nc(NCCc3c[nH]c4ccccc34)c3ncn(C(C)C)c3n2)c1 as the molecule, how does the IC50 (second compound 0.1 µM) read?
A: 4.07 µM

Q: What about the IC50 (second compound 0.316 µM) of the same molecule?
A: 3.99 µM

Q: What about the IC50 (second compound 1 µM) of the same molecule?
A: 3.72 µM

Q: And the IC50 (second compound 3.16 µM)?
A: 2.9 µM

Q: And the IC50 (second compound 10 µM)?
A: 1.3 µM

Q: And the viability, T/C [1]?
A: 85.5%

Q: And the viability, T/C [2]?
A: 119%

Q: What about the viability, T/C [3] of the same molecule?
A: 91.6%

Q: What about the viability, T/C [4] of the same molecule?
A: 99.5%

Q: What about the viability, T/C [5] of the same molecule?
A: 62%

Q: What about the viability, T/C [6] of the same molecule?
A: 6.76%

Q: What about the viability, T/C [7] of the same molecule?
A: 96.8%

Q: What about the viability, T/C [8] of the same molecule?
A: 97.2%

Q: What about the viability, T/C [9] of the same molecule?
A: 87.3%

Q: What about the viability, T/C [10] of the same molecule?
A: 106%

Q: What about the viability, T/C [11] of the same molecule?
A: 60.9%

Q: What about the viability, T/C [12] of the same molecule?
A: 7.2%

Q: And the viability, T/C [13]?
A: 95.4%

Q: What about the viability, T/C [14] of the same molecule?
A: 106%

Q: And the viability, T/C [15]?
A: 97.3%

Q: What about the viability, T/C [16] of the same molecule?
A: 106%

Q: And the viability, T/C [17]?
A: 57.1%

Q: What about the viability, T/C [18] of the same molecule?
A: 7.29%

Q: What about the viability, T/C [19] of the same molecule?
A: 105%

Q: What about the viability, T/C [20] of the same molecule?
A: 105%

Q: What about the viability, T/C [21] of the same molecule?
A: 102%

Q: And the viability, T/C [22]?
A: 105%

Q: What about the viability, T/C [23] of the same molecule?
A: 45.5%

Q: And the viability, T/C [24]?
A: 8.1%

Q: And the viability, T/C [25]?
A: 79.2%

Q: And the viability, T/C [26]?
A: 79%

Q: What about the viability, T/C [27] of the same molecule?
A: 70.1%

Q: And the viability, T/C [28]?
A: 60.6%

Q: And the viability, T/C [29]?
A: 18.6%

Q: What about the viability, T/C [30] of the same molecule?
A: 5.52%

Q: Which IC50 (second compound 0.1 µM) does the source give for `CCN(c1cc(-c2ccc(CN3CCOCC3)cc2)cc(C(=O)NCc2c(C)cc(C)[nH]c2=O)c1C)C1CCOCC1` + Cc1cncc(-c2nc(NCCc3c[nH]c4ccccc34)c3ncn(C(C)C)c3n2)c1 here?
A: > 3 µM

Q: What about the IC50 (second compound 0.316 µM) of the same molecule?
A: > 3 µM

Q: And the IC50 (second compound 1 µM)?
A: > 3 µM

Q: And the IC50 (second compound 3.16 µM)?
A: > 3 µM

Q: What about the IC50 (second compound 10 µM) of the same molecule?
A: 0.652 µM

Q: What about the viability, T/C [31] of the same molecule?
A: 106%

Q: What about the viability, T/C [32] of the same molecule?
A: 89.7%

Q: And the viability, T/C [33]?
A: 108%

Q: And the viability, T/C [34]?
A: 102%

Q: What about the viability, T/C (second compound 0.1 µM, first compound 0.949 µM) of the same molecule?
A: 94%

Q: What about the viability, T/C (second compound 0.1 µM, first compound 3 µM) of the same molecule?
A: 98.5%

Q: And the viability, T/C [35]?
A: 91.8%

Q: And the viability, T/C [36]?
A: 110%

Q: And the viability, T/C [37]?
A: 102%

Q: What about the viability, T/C [38] of the same molecule?
A: 101%

Q: What about the viability, T/C (second compound 0.316 µM, first compound 0.949 µM) of the same molecule?
A: 106%

Q: And the viability, T/C (second compound 0.316 µM, first compound 3 µM)?
A: 103%

Q: What about the viability, T/C [39] of the same molecule?
A: 98%

Q: And the viability, T/C [40]?
A: 115%

Q: What about the viability, T/C [41] of the same molecule?
A: 115%

Q: And the viability, T/C [42]?
A: 102%

Q: What about the viability, T/C (second compound 1 µM, first compound 0.949 µM) of the same molecule?
A: 111%

Q: What about the viability, T/C (second compound 1 µM, first compound 3 µM) of the same molecule?
A: 107%

Q: What about the viability, T/C [43] of the same molecule?
A: 102%

Q: And the viability, T/C [44]?
A: 103%

Q: And the viability, T/C [45]?
A: 103%

Q: And the viability, T/C [46]?
A: 105%

Q: What about the viability, T/C (second compound 3.16 µM, first compound 0.949 µM) of the same molecule?
A: 90.7%

Q: And the viability, T/C (second compound 3.16 µM, first compound 3 µM)?
A: 119%

Q: What about the viability, T/C [47] of the same molecule?
A: 84.8%

Q: And the viability, T/C [48]?
A: 98.5%

Q: And the viability, T/C [49]?
A: 82.9%

Q: And the viability, T/C [50]?
A: 72.1%

Q: And the viability, T/C (second compound 10 µM, first compound 0.949 µM)?
A: 39.6%

Q: What about the viability, T/C (second compound 10 µM, first compound 3 µM) of the same molecule?
A: 9.95%

Q: Which results are given for `Nc1ncn(C2CC(O)C(CO)S2)c(=O)n1` (stereo not given) + Cc1cncc(-c2nc(NCCc3c[nH]c4ccccc34)c3ncn(C(C)C)c3n2)c1?
A: IC50 (second compound 0.1 µM): > 0.3 µM; IC50 (second compound 0.316 µM): > 0.3 µM; IC50 (second compound 1 µM): > 0.3 µM; IC50 (second compound 3.16 µM): > 0.3 µM; IC50 (second compound 10 µM): > 0.3 µM; viability, T/C (second compound 0.1 µM, first compound 0.000949 µM): 102%; viability, T/C (second compound 0.1 µM, first compound 0.003 µM): 91.9%; viability, T/C [31]: 95.1%; viability, T/C [32]: 129%; viability, T/C [33]: 148%; viability, T/C [34]: 104%; viability, T/C (second compound 0.316 µM, first compound 0.000949 µM): 89.5%; viability, T/C (second compound 0.316 µM, first compound 0.003 µM): 89.4%; viability, T/C [35]: 104%; viability, T/C [36]: 109%; viability, T/C [37]: 140%; viability, T/C [38]: 105%; viability, T/C (second compound 1 µM, first compound 0.000949 µM): 98.2%; viability, T/C (second compound 1 µM, first compound 0.003 µM): 107%; viability, T/C [39]: 107%; viability, T/C [40]: 140%; viability, T/C [41]: 140%; viability, T/C [42]: 115%; viability, T/C (second compound 3.16 µM, first compound 0.000949 µM): 92.2%; viability, T/C (second compound 3.16 µM, first compound 0.003 µM): 89.9%; viability, T/C [43]: 90%; viability, T/C [44]: 106%; viability, T/C [45]: 121%; viability, T/C [46]: 98.4%; viability, T/C (second compound 10 µM, first compound 0.000949 µM): 79.5%; viability, T/C (second compound 10 µM, first compound 0.003 µM): 80.2%; viability, T/C [47]: 71.8%; viability, T/C [48]: 76.9%; viability, T/C [49]: 70.9%; viability, T/C [50]: 63.3%
